Measured values: patent publication US20250066367A1, “Pyrimidine-Annulated Triazole Derivatives and Their Use in Platelet Aggregation Inhibition” (BEIJING HONGHUI MEDITECH CO., LTD., priority 2021, published 2025)
Where two headings read alike, the source gives them in different places.

Biological target: human P2Y12 receptor (Homo sapiens, UniProt Q9H244)
Test: Inhibition study in human P2Y12 receptor transfected CHO cells (cAMP, LANCE Ultra cAMP Kit)
Assay type: cell-based
Protocol: A CHO cell line which stably expresses human P2Y12 receptors was used in the study of the inhibitory effect of the compounds of the disclosure. (The cell line was constructed by Beijing Ion Channel Explorer Co.) The hP2Y12-CHO Cells were cultured in Ham's F-12 medium (Ham's F-12 Medium: +10% FBS +200 μg/ml Hygromycin B) and incubated at 37° C. under 5% CO2. The poor culture medium was removed, and the cells were washed with PBS. Then 1 mL trypsin solution was added to digest/detach the cells. The culture dish was incubated at 37° C. for 2 minutes. As soon as the cells were detached, 5 mL 37° C. pre-warmed complete medium was added. Cell suspension was transferred into a sterile pipet, the cells aggregates were dissociated by a gentle homogenization. The cell suspension was transferred into a sterile tube, and centrifuged at 1000 rpm for 5 minutes; In order to maintain the physiological activity of cells, the degree of cell fusion was controlled at about 80%.
After cell counting, the cells were cultured in 384-well plate. The test compounds were serially diluted 5-fold from 10000 nM for 10 concentrations and in 3 replicates. Ticagrelor was used as the reference compound and 2-MeSADP as the inducer. After the incubation for 15 min at 37° C., forskolin buffer was added to all wells to induce the production of cAMP. The plate was centrifuged at 1000 rpm for 1 minute, followed by incubation at 37° C. for 30 min. After lysis, the cAMP expression was quantified using PerkinElmer's LANCE® Ultra cAMP Kit method.

[1] = hP2Y12-CHO cells, 2-MeSADP as inducer, forskolin-induced cAMP, read-out: Inbibition of P2Y12 IC50

human P2Y12 receptor, sequence (Q9H244 whole entry): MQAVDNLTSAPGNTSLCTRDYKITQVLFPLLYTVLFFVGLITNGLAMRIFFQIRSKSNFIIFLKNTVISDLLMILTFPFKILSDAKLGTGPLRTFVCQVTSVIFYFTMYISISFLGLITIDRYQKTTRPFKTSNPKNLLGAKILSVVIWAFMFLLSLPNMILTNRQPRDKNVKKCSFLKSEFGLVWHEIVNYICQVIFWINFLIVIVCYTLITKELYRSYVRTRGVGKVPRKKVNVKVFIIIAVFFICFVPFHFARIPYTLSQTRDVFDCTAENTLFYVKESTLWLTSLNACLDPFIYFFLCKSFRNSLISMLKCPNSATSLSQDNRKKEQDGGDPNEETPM

| SMILES | IC50 [1] | IC50 |
| --- | --- | --- |
| CCCSc1nc(N[C@@H]2C[C@H]2c2ccc(F)c(F)c2)c2nnn([C@@H]3[C@@H](O)[C@H](CO)O[C@H]3CO)c2n1 [Compound 8, ((2R,3R,4R,5S)-3-(7-(((1R,2S)-2-(3,4-difluorophenyl)cyclopropyl)amino)-5-(propylthio)-3H-[1,2,3]triazolo[4,5-d]pyrimidin-3-yl)-4-hydroxytetrahydrofuran-2,5-diyl)dimethanol] | 250 to 1250 nM | – |
| CCCSc1nc(N[C@@H]2C[C@H]2c2ccc(F)c(F)c2)c2nnn([C@@H]3[C@@H](F)[C@H](CO)O[C@H]3CO)c2n1 [Compound 39b, ((2R,3S,4R,5S)-3-(7-(((1R,2S)-2-(3,4-difluorophenyl)cyclopropyl)amino)-5-(propylthio)-3H-[1,2,3]triazolo[4,5-d]pyrimidin-3-yl)-4-fluorotetrahydrofuran-2,5-diyl)dimethanol] | 50 to 250 nM | – |
| CCC[S+]([O-])c1nc(N[C@@H]2C[C@H]2c2ccc(F)c(F)c2)c2nnn([C@@H]3C[C@H](C(=O)O)O[C@H]3CO)c2n1 (stereo partly drawn) [Compound 43, (2R,4R,5R)-4-(7-(((1R,2S)-2-(3,4-difluorophenyl)cyclopropyl)amino)-5-(propylsulfinyl)-3H-[1,2,3]triazolo[4,5-d]pyrimidin-3-yl)-5-(hydroxymethyl) tetrahydrofuran-2-carboxylic Acid] | 250 to 1250 nM | – |
| CCCSc1nc(N[C@@H]2C[C@H]2c2ccc(F)c(F)c2)c2nnn([C@@H]3C[C@H](CO)O[C@H]3COC)c2n1 [Compound 49, ((2R,4R,5R)-4-(7-(((1R,2S)-2-(3,4-difluorophenyl)cyclopropyl)amino)-5-(propylthio)-3H-[1,2,3]triazolo[4,5-d]pyrimidin-3-yl)-5-(methoxymethyl)tetrahydrofuran-2-yl)methanol] | 250 to 1250 nM | – |
| CCCSc1nc(N[C@@H]2C[C@H]2c2ccc(F)c(F)c2)c2nnn([C@@H]3C[C@H](CCO)O[C@H]3CO)c2n1 [Compound 54, 2-((2R,4R,5R)-4-(7-(((1R,2S)-2-(3,4-difluorophenyl)cyclopropyl)amino)-5-(propylthio)-3H-[1,2,3]triazolo[4,5-d]pyrimidin-3-yl)-5-(hydroxymethyl)tetrahydrofuran-2-yl)ethan-1-ol] | > 1250 nM | – |
| CCCSc1nc(N[C@@H]2C[C@H]2c2ccc(F)c(F)c2)c2nnn([C@@H]3C[C@H](OCCO)[C@@H](O)[C@H]3O)c2n1 [Ticagrelor, reference compound] | – | < 50 nM |

The next lines start with the values.

| IC50 [1] | IC50 | SMILES |
| --- | --- | --- |
| < 50 nM | – | CCCSc1nc(N[C@@H]2C[C@H]2c2ccc(F)c(F)c2)c2nnn([C@@H]3C[C@H](CO)O[C@H]3CO)c2n1 [Compound 19, ((2R,3R,5R)-3-(7-(((1R,2S)-2-(3,4-difluorophenyl)cyclopropyl)amino)-5-(propylthio)-3H-[1,2,3]triazolo[4,5-d]pyrimidin-3-yl)tetrahydrofuran-2,5-diyl)dimethanol] |
| < 50 nM | – | CCCSc1nc(N[C@@H]2C[C@H]2c2ccc(F)c(F)c2)c2nnn([C@H]3CO[C@@H](CO)[C@@H]3O)c2n1 [Compound 27, (2S,3R,4S)-4-(7-(((1R,2S)-2-(3,4-difluorophenyl)cyclopropyl)amino)-5-(propylthio)-3H-[1,2,3]triazolo[4,5-d]pyrimidin-3-yl)-2-(hydroxymethyl)tetrahydrofuran-3-ol] |
| < 50 nM | – | CCCSc1nc(N[C@@H]2C[C@H]2c2ccc(F)c(F)c2)c2nnn([C@H]3CO[C@@H](CO)C3)c2n1 [Compound 32, ((2R,4R)-4-(7-(((1R,2S)-2-(3,4-difluorophenyl)cyclopropyl)amino)-5-(propylthio)-3H-[1,2,3]triazolo[4,5-d]pyrimidin-3-yl)tetrahydrofuran-2-yl)methanol] |
| 50 to 250 nM | – | CCCSc1nc(N[C@@H]2C[C@H]2c2ccc(F)c(F)c2)c2nnn([C@@H]3[C@H](F)[C@H](CO)O[C@H]3CO)c2n1 [Compound 39a, ((2R,3S,4S,5S)-3-(7-(((1R,2S)-2-(3,4-difluorophenyl)cyclopropyl)amino)-5-(propylthio)-3H-[1,2,3]triazolo[4,5-d]pyrimidin-3-yl)-4-fluorotetrahydrofuran-2,5-diyl)dimethanol] |
| < 50 nM | – | CCCSc1nc(N[C@@H]2C[C@H]2c2ccc(F)c(F)c2)c2nnn([C@@H]3C[C@H](C(=O)O)O[C@H]3CO)c2n1 [Compound 42, (2R,4R,5R)-4-(7-(((1R,2S)-2-(3,4-difluorophenyl)cyclopropyl)amino)-5-(propylthio)-3H-[1,2,3]triazolo[4,5-d]pyrimidin-3-yl)-5-(hydroxymethyl)tetrahydrofuran-2-carboxylic acid] |
